These compounds were tested against T1, PEDV 3CL^pro (Porcine epidemic diarrhea virus CV777, UniProt P0C6Y4) (assay: FRET protease assay, Dabcyl/Edans peptide). Conditions: read-out: Inhibitory rate.
T1 construct: gene rep; mature nsp5 cut from replicase polyproteins pp1a/pp1ab; N- and C-terminal His tags (kept, no cleavage told), pET-28a(+), E. coli BL21(DE3), nickel column; docking used PDB 4XFQ
T1 sequence (P0C6Y4 2998-3299 limits assumed): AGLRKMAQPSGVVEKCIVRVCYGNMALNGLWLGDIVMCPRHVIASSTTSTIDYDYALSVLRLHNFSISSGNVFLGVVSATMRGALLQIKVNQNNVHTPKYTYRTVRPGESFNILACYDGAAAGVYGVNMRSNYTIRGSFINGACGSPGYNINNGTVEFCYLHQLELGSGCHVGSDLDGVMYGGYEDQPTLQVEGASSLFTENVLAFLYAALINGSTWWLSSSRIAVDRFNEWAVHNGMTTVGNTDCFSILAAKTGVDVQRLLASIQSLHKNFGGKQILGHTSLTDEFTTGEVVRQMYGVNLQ
Type: biochemical
Text: FRET protease assay, Dabcyl/Edans peptide on PEDV 3CL^pro

Q: `O=C(O[C@@H]1Cc2c(O)cc(O)cc2O[C@H]1c1cc(O)c(O)c(O)c1)c1cc(O)c(O)c(O)c1` [compound 1, (−)-Gallocatechin gallate] was tested. Which inhibition at 20 µM did it give?
A: The inhibition at 20 µM was 97.65 ± 0.35%.

Q: For `O=c1c(O)c(-c2ccc(O)c(O)c2)oc2cc(O)ccc12` [compound 2, Fisetin], which inhibition at 20 µM is on record?
A: The inhibition at 20 µM was 96.8 ± 2.64%.

Q: `O=c1c(O)c(-c2cc(O)c(O)c(O)c2)oc2cc(O)cc(O)c12` [compound 6, Myricetin] was tested. Which inhibition at 20 µM did it give?
A: Its inhibition at 20 µM is 75.3 ± 2.33%.

Q: Which inhibition at 20 µM does the source give for `O=c1c(O)c(-c2ccc(O)c(O)c2)oc2cc(O)c(O)c(O)c12` [compound 3, Quercetagetin] here?
A: Its inhibition at 20 µM is 91.8 ± 2.74%.

Q: `O=c1c(-c2ccc(O)cc2)coc2cc(O)ccc12` [compound 4, Daidzein] was tested. Which inhibition at 20 µM did it give?
A: Its inhibition at 20 µM is 91.26 ± 0.85%.

The compounds below were run against T1, PEDV 3CL^pro (assay: FRET protease assay, Dabcyl/Edans peptide). Conditions: not given.
Type: biochemical

Q: With `O=C(O)[C@H]1O[C@@H](Oc2cc3oc(-c4ccccc4)cc(=O)c3c(O)c2O)[C@H](O)[C@@H](O)[C@@H]1O` [Baicalin] as the compound, how does the IC50 read?
A: Its IC50 is 65.8 ± 6.57 µM.

Q: How did the IC50 turn out when `O=c1cc(-c2ccccc2)oc2cc(O)c(O)c(O)c12` [Baicalein] was run?
A: The IC50 was 9.5 ± 1.02 µM.
